Data taken from patent publication US6805865B1, “Compositions and methods for treating cancer and hyperproliferative disorders” (EntreMed, Inc., priority 1993, dated 2004).

How the values were obtained:
[1] = system: HUVEC; assay: bFGF stimulated HUVEC proliferation in the presence of bFGF peptides; type: cell-based; settings: free synthetic peptide, in vitro
[2] = system: bFGF; assay: Serum antibody response (ELISA) after vaccination with bFGF peptides conjugated to lipid A liposomes; type: in vivo; settings: C57BL/6J mice, peptide covalently conjugated to liposomal vesicles containing lipid A
Text: Both peptides A and B were incorporated into lipid A containing liposomes and used separately in a vaccination protocol. Peptides were conjugated to liposomes according to the methods and protocols described above in Example 8. Mice were immunized and boosted twice, bled and pooled serum analyzed for anti-peptide antibody titer and crossreactivity to bFGF by ELISA.
The comparison of titers and crossreactivity for serum from mice vaccinated with whole bFGF or with the liposomal heparin binding domain peptide of bFGF vaccine is shown in FIG. 4 and a comparison of the titers and crossreactivity for serum from mice vaccinated with whole bFGF or the liposomal receptor binding domain peptide of bFGF vaccine is shown in FIG. 5.

[3] = system: B16BL6 melanoma; assay: Growth of B16BL6 tumor cells in vitro with peptide and bFGF (cell counts); type: cell-based, murine; settings: 10,000 cells/well, various peptide concentrations, media with 5 ng/ml bFGF
Method: B16BL6 melanoma were plated at 10,000 cells/well in a 24 well plate and incubated overnight. […] This example provides methods useful for selecting peptides useful for the methods and compositions of the present invention.

[4] = system: bFGF-induced vascularization; assay: bFGF-containing gelatin sponge implanted on liver of vaccinated mice, histology; type: in vivo; settings: peptide-liposome vaccinated mice, sponge with recombinant human bFGF on liver, 14 days after implantation
Text: Following the vaccination protocol, mice were challenged with bFGF impregnated sponges and neovascularization assessed after 14 days, the results are shown in FIG. 6.
In order to determine if generation of antibody to the bFGF molecule has an effect on bFGF-induced vascularization, gelatin sponges containing recombinant human bFGF were implanted onto the left lobe of the liver of mice following vaccination with the liposomal lipid A controls, liposomes containing the heparin binding domain peptide, liposome containing the receptor binding domain peptide, or PBS. Fourteen days following implantation, the sponges were removed. Vascularity and leukocyte infiltration were assessed histologically. Well defined blood vessels containing red blood cells were evident in sponges removed from mice vaccinated with control preparations (liposomal lipid A and PBS). In addition, there was an abundant amount of cellular infiltration, consisting of white blood cells and fibroblasts. […] Although red blood cells were present in the histological sections of the sponge taken from mice vaccinated with the heparin binding domain peptide, they lacked well defined structures surrounding them.

[5] = system: B16-BL6 melanoma cells; assay: B16-BL6-containing gelatin sponge implanted on liver of vaccinated mice, histology; type: in vivo; settings: peptide-liposome vaccinated mice, 14 days after implantation
Text: In order to determine if vaccination could inhibit the angiogenesis induced by a tumor, gelatin sponges were implanted containing B16-BL6 melanoma cells onto the liver of mice following vaccination with control liposomes (liposomal lipid A), liposomes linked to the heparin binding domain peptide, liposomes linked to the receptor binding domain peptide, or PBS. Fourteen days following implantation, the sponges are removed and examined histologically. Sponges removed from mice vaccinated with liposomal lipid A and PBS contained viable and proliferating B16BL6 tumor cells. In addition, neovascularization into the sponge was abundant. […] Similar to findings from sponges containing bFGF, there was a tremendous amount of red blood cells lacking defined structures surrounding them.

[6] = system: B16BL6; assay: B16BL6 experimental lung metastasis after intravenous challenge of vaccinated mice; type: in vivo; settings: peptide conjugated to liposomes, vaccinated and boosted, intravenous melanoma challenge, 14 days
Text: Fourteen days after the mice were vaccinated, boosted, and challenged with B16B16 murine melanoma, the animals were sacrificed and the lungs were removed and numbers of melanotic tumor nodules on the surface were counted.
Two weeks following the final boost , mice were intravenously challenged with B16BL6. Mice were sacrificed at day 14 following challenge. […] The heparin binding domain peptide bFGF covalently linked to liposomes was used as a positive control in this experiment.

[7] = system: LLC-LM; assay: LLC-LM experimental metastatic model, intravenous challenge, lung weight; type: in vivo, mice; settings: peptide in liposome format, 3 inoculations two weeks apart, day 17, based on lung weight, versus control
Method: Efficacy of vaccination of mice with the heparin binding domain peptide bFGF in a liposome format was determined in the LLC-LM experimental metastatic model.
Mice were vaccinated with the heparin binding domain peptide of bFGF in a liposome format using the same vaccination regimen as in the B16BL6 experiments above (3 inoculations two weeks apart). Two weeks following the final boost, mice were intravenously challenged with LLC-LM. At day 17, the control (no treatment) mice began to succumb to the tumor burden in the lung. All groups were sacrificed. Lungs were removed and analyzed based on lung weight. Normal lung weight was subtracted out of the treated and non-treated groups to determine the T/C. Vaccination with the heparin binding domain peptide inhibited the growth and development of LLC-LM experimental metastasis by 94% when compared to control. These lungs have been photographed and will be assessed histologically.

| Sequence | bFGF stimulated HUVEC proliferation [1] | antibody response in serum [2] | bFGF stimulated HUVEC proliferation ([1]; listed as heparin-binding domain peptide) | growth of B16BL6 cells, cell counts [3] | cellular infiltration and neovascularization of bFGF sponge [4] | neovascularization and tumor growth in B16-BL6 sponge [5] | mean number of lung metastases [6] | inhibition of growth and development of LLC-LM experimental metastasis [7] [%] |
| --- | --- | --- | --- | --- | --- | --- | --- | --- |
| SNNYNTYRSRKYSSWYVALKR (listed as Homo sapiens) [receptor binding domain peptide, used free or conjugated to lipid A liposomes] | inhibited | no antibody response |  |  |  |  |  |  |
| YCKNGGFFLRIHPDGRVDGVREKSDPHIKLQLQAEERGV VSIKGV (YCKNGGFFLRIHPDGRVDGVREKSDPHIKLQLQAEERGVVSIKGV; listed as Homo sapiens) [heparin binding domain peptide, used free or conjugated to lipid A liposomes] | inhibitory effect | antibody response | inhibited | no significant effect | lack of cellular infiltration and neovascularization | blocked neovascularization and caused ablation of tumor growth and development | significantly reduces | 94 |
